Laboratory results from the supplement of paper PMC10307832.

Key:
Assay in all cases: relative viability (nuclei count vs DMSO), 5 days (fraction); higher = more cells survive
CAL-12T = test system: CAL-12T
Method in brief: (§1)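 Medians of duplicate plates are given as relative viability. That measure is the nuclei count in treated wells divided by the count in vehicle wells. Counts were taken on 4× images of lung cancer cell lines in 1536-well plates, 5 days after pin-tool dosing the day after seeding with one drug alone or a fixed anchor-drug dose plus five library-drug doses (not always all listed) in √10 steps.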

BEN = test system: BEN
Method in brief: as §1

NCI-H520 = test system: NCI-H520
Method in brief: as §1

NCI-H2023 = test system: NCI-H2023
Method in brief: as §1

NCI-H1650 = test system: NCI-H1650
Method in brief: as §1

NCI-H1944 = test system: NCI-H1944
Method in brief: as §1

NCI-H1915 = test system: NCI-H1915
Method in brief: as §1

NCI-H727 = test system: NCI-H727
Method in brief: as §1

201T = test system: 201T
Method in brief: as §1

NCI-H661 = test system: NCI-H661
Method in brief: as §1

PC-3 [JPC-3] = test system: PC-3 [JPC-3]
Method in brief: as §1

A-427 = test system: A-427
Method in brief: as §1

NCI-H460 = test system: NCI-H460
Method in brief: as §1

NCI-H441 = test system: NCI-H441
Method in brief: as §1

LCLC-97TM1 = test system: LCLC-97TM1
Method in brief: as §1

LC-2-ad = test system: LC-2-ad
Method in brief: as §1

ABC-1 = test system: ABC-1
Method in brief: as §1

NCI-H596 = test system: NCI-H596
Method in brief: as §1

H3255 = test system: H3255
Method in brief: as §1

NCI-H650 = test system: NCI-H650
Method in brief: as §1

NCI-H1651 = test system: NCI-H1651
Method in brief: as §1

NCI-H1792 = test system: NCI-H1792
Method in brief: as §1

NCI-H2087 = test system: NCI-H2087
Method in brief: as §1

Molecule `CC1(C)CCC(c2ccc(Cl)cc2)=C(CN2CCN(c3ccc(C(=O)NS(=O)(=O)c4ccc(N[C@H](CCN5CCOCC5)CSc5ccccc5)c(S(=O)(=O)C(F)(F)F)c4)cc3)CC2)C1` [Navitoclax] + CS(=O)(=O)N1CCN(Cc2cc3nc(-c4cccc5[nH]ncc45)nc(N4CCOCC4)c3s2)CC1 [Pictilisib] (partner 1 µM) has a relative viability (CAL-12T; first compound 0.005 µM) of 0.549, a relative viability (CAL-12T; first compound 0.01581 µM) of 0.419 and a relative viability (CAL-12T; first compound 0.05 µM) of 0.404. For the same molecule, the relative viability (CAL-12T; first compound 0.1581 µM) was 0.522, the relative viability (CAL-12T; first compound 0.5 µM) was 0.393 and the relative viability (BEN; first compound 0.005 µM) was 0.548. The relative viability (BEN; first compound 0.01581 µM) was 0.678, the relative viability (BEN; first compound 0.05 µM) was 0.625 and the relative viability (BEN; first compound 0.1581 µM) was 0.602. It also gave a relative viability (BEN; first compound 0.5 µM) of 0.364, a relative viability (NCI-H520; first compound 0.005 µM) of 0.305 and a relative viability (NCI-H520; first compound 0.01581 µM) of 0.374. It also gave a relative viability (NCI-H520; first compound 0.05 µM) of 0.3, a relative viability (NCI-H520; first compound 0.1581 µM) of 0.322 and a relative viability (NCI-H520; first compound 0.5 µM) of 0.281. For the same molecule, the relative viability (NCI-H2023; first compound 0.005 µM) was 0.282, the relative viability (NCI-H2023; first compound 0.01581 µM) was 0.248 and the relative viability (NCI-H2023; first compound 0.05 µM) was 0.22. For the same molecule, the relative viability (NCI-H2023; first compound 0.1581 µM) was 0.263, the relative viability (NCI-H2023; first compound 0.5 µM) was 0.269 and the relative viability (NCI-H1650; first compound 0.005 µM) was 0.541. The relative viability (NCI-H1650; first compound 0.01581 µM) was 0.737, the relative viability (NCI-H1650; first compound 0.05 µM) was 0.656 and the relative viability (NCI-H1650; first compound 0.1581 µM) was 0.623. The relative viability (NCI-H1650; first compound 0.5 µM) was 0.394, the relative viability (NCI-H1944; first compound 0.005 µM) was 0.336 and the relative viability (NCI-H1944; first compound 0.01581 µM) was 0.371. It also gave a relative viability (NCI-H1944; first compound 0.05 µM) of 0.374, a relative viability (NCI-H1944; first compound 0.1581 µM) of 0.357 and a relative viability (NCI-H1944; first compound 0.5 µM) of 0.397. The relative viability (NCI-H1915; first compound 0.005 µM) was 0.893, the relative viability (NCI-H1915; first compound 0.01581 µM) was 1.02 and the relative viability (NCI-H1915; first compound 0.05 µM) was 1.01. It also gave a relative viability (NCI-H1915; first compound 0.1581 µM) of 0.933, a relative viability (NCI-H1915; first compound 0.5 µM) of 0.902 and a relative viability (NCI-H727; first compound 0.005 µM) of 0.398. For the same molecule, the relative viability (NCI-H727; first compound 0.01581 µM) was 0.423, the relative viability (NCI-H727; first compound 0.1581 µM) was 0.33 and the relative viability (NCI-H727; first compound 0.5 µM) was 0.171. The relative viability (201T; first compound 0.005 µM) was 0.661, the relative viability (201T; first compound 0.01581 µM) was 0.738 and the relative viability (201T; first compound 0.05 µM) was 0.677. The relative viability (201T; first compound 0.1581 µM) was 0.65, the relative viability (201T; first compound 0.5 µM) was 0.707 and the relative viability (NCI-H661; first compound 0.005 µM) was 0.48. For the same molecule, the relative viability (NCI-H661; first compound 0.01581 µM) was 0.443, the relative viability (NCI-H661; first compound 0.05 µM) was 0.379 and the relative viability (NCI-H661; first compound 0.1581 µM) was 0.406. It also gave a relative viability (NCI-H661; first compound 0.5 µM) of 0.465, a relative viability (PC-3 [JPC-3]; first compound 0.005 µM) of 0.648 and a relative viability (PC-3 [JPC-3]; first compound 0.01581 µM) of 0.701. The relative viability (PC-3 [JPC-3]; first compound 0.05 µM) was 0.87, the relative viability (PC-3 [JPC-3]; first compound 0.1581 µM) was 0.678 and the relative viability (PC-3 [JPC-3]; first compound 0.5 µM) was 0.75. For the same molecule, the relative viability (A-427; first compound 0.005 µM) was 0.675, the relative viability (A-427; first compound 0.01581 µM) was 0.675 and the relative viability (A-427; first compound 0.05 µM) was 0.659. The relative viability (A-427; first compound 0.1581 µM) was 0.753, the relative viability (A-427; first compound 0.5 µM) was 0.799 and the relative viability (NCI-H460; first compound 0.005 µM) was 0.348. It also gave a relative viability (NCI-H460; first compound 0.01581 µM) of 0.419, a relative viability (NCI-H460; first compound 0.1581 µM) of 0.326 and a relative viability (NCI-H460; first compound 0.5 µM) of 0.334. The relative viability (NCI-H441; first compound 0.005 µM) was 0.441, the relative viability (NCI-H441; first compound 0.01581 µM) was 0.606 and the relative viability (NCI-H441; first compound 0.05 µM) was 0.433. It also gave a relative viability (NCI-H441; first compound 0.1581 µM) of 0.529, a relative viability (NCI-H441; first compound 0.5 µM) of 0.458 and a relative viability (LCLC-97TM1; first compound 0.005 µM) of 0.255. The relative viability (LCLC-97TM1; first compound 0.01581 µM) was 0.146, the relative viability (LCLC-97TM1; first compound 0.05 µM) was 0.193 and the relative viability (LCLC-97TM1; first compound 0.1581 µM) was 0.187. For the same molecule, the relative viability (LCLC-97TM1; first compound 0.5 µM) was 0.153, the relative viability (LC-2-ad; first compound 0.005 µM) was 0.614 and the relative viability (LC-2-ad; first compound 0.01581 µM) was 0.654. For the same molecule, the relative viability (LC-2-ad; first compound 0.05 µM) was 0.324, the relative viability (LC-2-ad; first compound 0.1581 µM) was 0.447 and the relative viability (LC-2-ad; first compound 0.5 µM) was 0.38. For the same molecule, the relative viability (ABC-1; first compound 0.005 µM) was 0.795, the relative viability (ABC-1; first compound 0.01581 µM) was 1 and the relative viability (ABC-1; first compound 0.05 µM) was 0.686. The relative viability (ABC-1; first compound 0.1581 µM) was 0.64, the relative viability (ABC-1; first compound 0.5 µM) was 0.616 and the relative viability (NCI-H596; first compound 0.005 µM) was 0.405. The relative viability (NCI-H596; first compound 0.01581 µM) was 0.399, the relative viability (NCI-H596; first compound 0.05 µM) was 0.398 and the relative viability (NCI-H596; first compound 0.1581 µM) was 0.308. It also gave a relative viability (NCI-H596; first compound 0.5 µM) of 0.218, a relative viability (H3255; first compound 0.005 µM) of 0.524 and a relative viability (H3255; first compound 0.01581 µM) of 0.528. It also gave a relative viability (H3255; first compound 0.05 µM) of 0.549, a relative viability (H3255; first compound 0.1581 µM) of 0.45 and a relative viability (H3255; first compound 0.5 µM) of 0.461. The relative viability (NCI-H650; first compound 0.005 µM) was 0.765, the relative viability (NCI-H650; first compound 0.01581 µM) was 0.948 and the relative viability (NCI-H650; first compound 0.05 µM) was 0.869. For the same molecule, the relative viability (NCI-H650; first compound 0.1581 µM) was 0.972, the relative viability (NCI-H650; first compound 0.5 µM) was 0.448 and the relative viability (NCI-H1651; first compound 0.005 µM) was 0.592. It also gave a relative viability (NCI-H1651; first compound 0.01581 µM) of 0.687, a relative viability (NCI-H1651; first compound 0.1581 µM) of 0.561 and a relative viability (NCI-H1651; first compound 0.5 µM) of 0.559. For the same molecule, the relative viability (NCI-H1792; first compound 0.005 µM) was 0.307, the relative viability (NCI-H1792; first compound 0.01581 µM) was 0.283 and the relative viability (NCI-H1792; first compound 0.05 µM) was 0.163. For the same molecule, the relative viability (NCI-H1792; first compound 0.1581 µM) was 0.285, the relative viability (NCI-H1792; first compound 0.5 µM) was 0.29 and the relative viability (NCI-H2087; first compound 0.005 µM) was 0.806. It also gave a relative viability (NCI-H2087; first compound 0.01581 µM) of 0.976, a relative viability (NCI-H2087; first compound 0.05 µM) of 0.54 and a relative viability (NCI-H2087; first compound 0.1581 µM) of 1.02. For the same molecule, the relative viability (NCI-H2087; first compound 0.5 µM) was 0.887.
